We go through 22 compounds from patent publication US20240335404A1, “SUBSTITUTED ESTERS CONTAINING POLYOLS AND SACCHARIDES FOR TREATING HEPATOTOXICITY AND FATTY LIVER DISEASES” (SINEW PHARMA INC., priority 2015, published 2024).

One data set concerns HepG2 fatty liver cells. Kind of data set: TG content in oleic acid-induced fatty liver cells from HepG2. Type of data set: cell-based, human. The following applies: tested substances 1.0 μM. As to the method:
The activity of the various ingredients as described herein, including mannitol and sucralose and others, in reduction of fat content was analyzed by using human hepatoma cell line Hep G2.
HepG2 cell lines (15×10^6 cells) were cultured in DMEM culture No. B, incubated in an incubator with 5% CO2 at 37° C. for 24 hours, cultured in DMEM culture No. C (serum-free medium) for 24 hours, and finally cultured in DMEM culture No. D (containing oleate/albumin complex) for another 48 hours to induce HepG2 cell lines to form fatty liver cells.
HepG2 cell lines were divided into six groups, including: (1) Blank: no treatment; (2) DMSO group: cells from Blank were treated with dimethyl sulfoxide (DMSO); (3) Control: induction with oleic acid to form fatty liver cells; (4) Vehicle group: fatty liver cells formed by induction with oleic acid were treated with DMSO; (5) Positive control: fatty liver cells were treated with silyrnarin; and (6) Test Group: fatty liver cells were treated with various compounds of the present invention.
After incubation for 72 hours, the treated cells from each group were successively washed twice in PBS, and then incubated with 0.5 ml of trypsin/EDTA for 3 minutes. Afterwards, the cells were scraped with 2 ml of PBS and then transferred to the centrifuge tube to be shattered by ultrasonic. A volume of 20 μl cell extracts was taken to determine the content of protein. TG determination was performed using commercially available combination of agents (Randox). The TG content obtained above was divided by the protein content to get a ratio, which represented the relative content of TG in cells.
The equation for calculating reduction rate (%) of TG was as follows: [1−(TG content of Test Group−TG content of Blank)/(TG content of Oleic acid induction Group−TG content of Blank)]×100%.

In data set [1] the test system is Liver Injuries Induced by CCl4. Kind of data set: Liver injuries induced by CCl4 in mice (GSP, AST/ALT, HAI). Type of data set: in vivo. The following applies: CCl4-induced liver injuries; dose less than or equivalent to 100 mg per person. The method, then:
In the normal control, animals were administered with normal saline by intraperitoneal injection. In the control group of CCl4 induced liver injuries, animals were intraperitoneally injected with 10 ml/kg CCl4 (40% in corn oil) to induce hepatotoxicity. In the experimental group, animals were intraperitoneally injected with 10 ml/kg CCl4 (40% in corn oil) to induce hepatotoxicity, and 4 hours later, different ingredients of the present invention were administered by tube feeding. Blood was collected from the mice before administration with the ingredients of the present invention or at 24 hours after administration with the ingredients of the present invention for AST/ALT assays. Finally, animals were sacrificed at day 2 and blood were collected for AST/ALT assay and histological analysis was performed.
On the other hand, other experimental groups of mice were fed with the ingredients of the present invention for 12 weeks and the mice were subjected to GSP tests.
(§1) Liver damage is quantified by measuring plasma AST and ALT activity. AST and ALT are common indicators of hepatotoxicity and are measured by using the Synchron LXi 725 system (Beckman Instruments, U.S.).
Following scarification of the rats, histological analysis was performed. Liver samples were fixed with 10% phosphate-buffered formalin, dehydrated an embedded in paraffin, Sections were prepared in 5 μm thickness and then stained with hematoxylin and eosin and subjected to Periodic acid Schiff stain (PAS). The stained sections were observed under the optic microscope.
After the study was completed, all rats were subjected to GSP test. Rats were i.v. injected with 0.4 g/ml BW galactose solution 0.5 g/kg within 30 seconds and one blood sample was collected at 5, 10, 15, 30, 45 and 60 minutes post injection from the tail vein. Colorimetric galactose dehydrogenase is used to quantify the concentration of galactose and the test concentration ranges from 50 to 1,000 μg/ml. The within-day variation of each concentration is calculated using standard deviation and coefficient of variation (CV) and the maximum allowable coefficient of variation is 10% CV, whereas day-to-day variation is examined by comparing the slope and intercept of calibration curves. The GSP is the blood galactose concentration obtained 60 seconds after stopping the 30-second injection.
All data are represented in mean±standard deviation (SD) and the results are calculated using ANOVA to determine the significance. Statistical Package of the Social Science program (Version 13, SPSS Inc.) is used for calculations followed by post hoc test to examine the least significant difference for multiple comparisons so as to confirm the significant differences between groups and the average difference between groups was significant p<0.05.

The subject of data set [2] is Liver Injuries Induced by APAP. Put plainly: Liver injuries induced by APAP in rats (GSP, AST/ALT, HAI, survival). Type of data set: in vivo, SD (Sprague-Dawley) rats. The following applies: APAP 2,000 mg/kg, 140 mg/kg of NAC followed by 5 × 70 mg/kg NAC at 4 h intervals. The method, then: Male SD (Sprague-Dawley) rats weighing 175-280 g were purchased from the National Laboratory Animal Center (NLAC), Taiwan. The study was conducted in accordance with the Guidelines for Conducting Animal Studies of the National Health Research Institute and all rats were placed in the air/humidity controlled environment under the 12 hours of day/12 hours of night cycle and with unlimited water and food supply. During the course of the study, the weights of rats were monitored continuously with normal water supply.
In the normal control (Group 1), animals were not fed with APAP. In the control group of APAP-induced liver injuries (Group 2), animals were fed with a single dose of APAP in the amount of 2,000 mg per kilogram of body weight to induce hepatotoxicity. In the positive control group of treatment with NAC (Group 3), animals were fed with a single dose of APAP in the amount of 2,000 mg per kilogram of body weight to induce hepatotoxicity, and 4 hours later, a 24-hour treatment period by tube feeding was started, including first administration of 140 mg of NAC (per kilogram of body weight) and later administration of 70 mg of NAC (per kilogram of body weight) every 4 hours for five times. In the experimental group (Group 4), animals were fed with a single dose of APAP in the amount of 2,000 mg per kilogram of body weight to induce hepatotoxicity, and 4 hours later, a 24-hour treatment period by tube feeding was started, including six dosing with the ingredients of the present invention every 4 hours, as follows: • (a) (Group 4.1): administration of mannitol at a dose less than or equivalent to 100 mg per person every 4 hours for 24 hours, • (b) (Group 4.2): administration of double dose of mannitol as in Group 4.1 every 4 hours for 24 hours, • (c) (Group 4.3): administration of sucralose at a dose less than or equivalent to 100 mg per person every 4 hours for 24 hours, • (d) (Group 4.4): administration of double dose of sucralose of Group 4.3 every 4 hours for 24 hours, • (e) (Group 4.5): administration of a combination of 0.5 times the dose of mannitol as in Group 4.1 and 0.5 times the dose of sucralose as in Group 4.3 per kilogram of body weight every 4 hours for 24 hours, • (f) (Group 4.6): administration of a combination of the dose of mannitol as in Group 4.1 and the dose of sucralose as in Group 4.3 every 4 hours for 24 hours, • (g) (Group 4.7): administration of a combination of 1.5 times the dose of mannitol as in Group 4.1 and 1.5 times the dose of sucralose as in Group 4.3 every 4 hours for 24 hours, • (h) (Group 4.8): administration of a combination of double dose of mannitol as in Group 4.1 and double dose of sucralose as in Group 4.3 every 4 hours for 24 hours, and • (i) (Group 4.9): first administration of 140 mg of NAC per kilogram of body weight and later administration of a combination of 70 mg of NAC plus double dose of mannitol as in Group 4.1 and double dose of sucralose as in Group 4.3 every 4 hours for five times.
After the 24-hour treatment period, blood was collected from the tail artery of the rats for AST/SLT assays. Subsequently, rats were subjected to GSP tests. Finally, rats were sacrificed and histological analysis was performed.
After completion of the treatments, rats were sacrificed under ether anesthesia, and blood was collected from the tail artery of the rats and placed in a test tube containing EDTA. The plasma was centrifuged at 13,000 at 4° C. for 15 minutes and the isolated plasma was transferred to Eppendorf tubes in aliquots and stored at −80° C.
as §1
Following scarification of the rats, histological analysis was performed.

The target of a further data set is CYP2E1 (Homo sapiens, UniProt P05181). As to conditions: microsomes, 30 min, pH 7.4.
CYP2E1, sequence (P05181 whole entry): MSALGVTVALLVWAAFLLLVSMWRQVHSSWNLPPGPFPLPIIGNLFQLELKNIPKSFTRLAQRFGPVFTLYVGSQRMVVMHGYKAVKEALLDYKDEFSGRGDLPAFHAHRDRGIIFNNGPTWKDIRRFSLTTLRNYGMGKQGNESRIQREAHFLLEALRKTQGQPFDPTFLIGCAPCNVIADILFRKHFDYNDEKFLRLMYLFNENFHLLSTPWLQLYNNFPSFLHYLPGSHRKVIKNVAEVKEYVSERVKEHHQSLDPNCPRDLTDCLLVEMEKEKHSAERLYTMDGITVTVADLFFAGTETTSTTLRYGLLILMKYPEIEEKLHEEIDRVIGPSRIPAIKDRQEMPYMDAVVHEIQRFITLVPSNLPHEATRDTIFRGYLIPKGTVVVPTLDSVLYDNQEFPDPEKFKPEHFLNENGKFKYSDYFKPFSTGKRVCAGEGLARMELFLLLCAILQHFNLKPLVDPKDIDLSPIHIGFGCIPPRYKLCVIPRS

Read-outs that look alike come from different tables or passages of the source.

Protocol for CYP2E1: After addition of the test sample, the amount of CYP450 isozyme metabolite standard 6-OH-CZX (6-Hydroxy-Chlorzoxazone) is specific used for calculation of the CYP450 isozyme (CYP2E1) inhibition ratio of the test sample by using the amount of 6-OH-CZX of the control group as the baseline.
All samples were tested in triplicate. To determine the percentage inhibition, each test compound was dissolved in 1, 2, 4 μg/mL to three different concentrations. The CYP2E1 activity levels in the presence of the test compounds were compared with the control incubations. The 500-μL reaction mixture, containing 0.5 mg of microsomal protein, was incubated with 320 μM CZX in the presence of 5 mM MgCl2 and 1 mM NADPH in 50 mM phosphate buffer with pH 7.4 at 37° C. for 30 min. The reaction was terminated by ice-cold acetonitrile, and then 4-hydroxyl tolbutamide was added as an internal standard. The organic phase was evaporated to dryness and reconstituted into the mobile phase (methanol:water=1:1) prior to liquid chromatography-tandem mass spectrometry (LC-MS/MS) analysis. An API 3000 triple-quadrupole mass spectrometer equipped with an ion-spray (ESI) source was used to determine 6-OH-CZX in the human liver microsomes. The ESI interface was used in the positive-ion mode. The 6-OH-CZX was monitored at a transition of m/z 284.5→185.9.
The CYP450 isozyme activity levels in the presence of the test compounds were compared with the control incubations.

Turning to `O=c1cc(-c2ccc(O)c(O)c2)oc2cc(O[C@@H]3O[C@H](CO)[C@@H](O)[C@H](O)[C@H]3O)cc(O)c12` [Luteolin-7-glucoside], the “TG reduction rate (%)” value in the data set on HepG2 fatty liver cells was found to be 19.33 ± 4.59%.

Take `Oc1cc(O)c2c(c1)O[C@H](c1cc(O)c(O)c(O)c1)[C@H](O)C2` [(−)-Epigallocatechin]: the “TG reduction rate (%)” value with HepG2 fatty liver cells was 36.78 ± 6.67%.

Turning to `O=c1c(O)c(-c2ccc(O)c(O)c2)oc2c(O[C@@H]3O[C@H](CO)[C@@H](O)[C@H](O)[C@H]3O)c(O)cc(O)c12` [Gossypin], the “TG reduction rate (%)” value with HepG2 fatty liver cells was determined as 20.25 ± 4.63%.

Turning to `C[C@@H]1O[C@@H](Oc2c(-c3ccc(O)c(O)c3)oc3cc(O)cc(O)c3c2=O)[C@H](O)[C@H](O)[C@H]1O` [Quercitrin], the “TG reduction rate (%)” value in the data set on HepG2 fatty liver cells is recorded as 9.15 ± 9.24%.

With `O=C(O)c1ccc(O)c(O)c1` [Protocatechuic acid], the “TG reduction rate (%)” value with HepG2 fatty liver cells is recorded as 18.57 ± 7.6%.

In the case of (−)-Epicatechin-3-gallate, the “TG reduction rate (%)” value in the data set with HepG2 fatty liver cells worked out at 32.7 ± 4.33%.

Take `COc1ccc(-c2cc(=O)c3c(O)cc(O[C@@H]4O[C@H](CO[C@@H]5O[C@@H](C)[C@H](O)[C@@H](O)[C@H]5O)[C@@H](O)[C@H](O)[C@H]4O)cc3o2)cc1` [Linarin]: the “TG reduction rate (%)” value with HepG2 fatty liver cells came to 9.24 ± 12.34%.

As for epigallocetechin-3-gallate, in data set [1], the ALT is given as 95 ± 36 IU/L, the AST stood at 144 ± 49 IU/L, the GSP came to 312 ± 140 mg/L and the “Total HAI score” value came to 1.7 ± 0.9.

Turning to `CC(=O)N[C@@H](CS)C(=O)O` [NAC, N-acetylcysteine, reference compound], in data set [2], the ALT was determined as 221 ± 69 IU/L, the AST was 428 ± 74 IU/L, the GSP came to 393 ± 68 mg/L and the “Total HAI score” value was determined as 4.2 ± 0.8. In addition, the “Survival (Day 14, n/n)” value in data set [2] (Day 14) is reported as 3/6.

For `Oc1cc(O)c2c(c1)O[C@H](c1ccc(O)c(O)c1)[C@H](O)C2` [(−)-Epicatechin], the “TG reduction rate (%)” value with HepG2 fatty liver cells is 10.76 ± 8.92%.

Take `COc1c(O)cc(O)c2c(=O)cc(-c3ccccc3)oc12` [Wongonin]: the “TG reduction rate (%)” value in the data set on HepG2 fatty liver cells turned out to be 20.78 ± 1.12%.

`COc1ccc(O)c(C(C)(C)C)c1` [Butylated hydroxyanisole]: the “TG reduction rate (%)” value in the data set on HepG2 fatty liver cells was 6.21 ± 3.8%.

In the case of `CCN(CC)C(=S)S` [DDTC, Diethyldithiocarbamic acid], the “CYP 2E1 inhibition ratio (%)” value on CYP2E1 (10 μM) is 11.2 ± 2.4%; at CYP2E1 (50 μM), 51.2 ± 3.2%.

Turning to `O=C([O-])c1ccccc1.[Na+]` [Sodium benzoate], in the data set on HepG2 fatty liver cells, the “TG reduction rate (%)” value was 14.35 ± 4.86%.

Consider `COc1ccc(-c2cc(=O)c3c(O)cc(O)c(-c4cc(-c5cc(=O)c6c(O)cc(OC)cc6o5)ccc4OC)c3o2)cc1` [Sciadopitysin], for which the “TG reduction rate (%)” value in the data set on HepG2 fatty liver cells was found to be 21.83 ± 5.04%.

Turning to `Oc1cc(O)c2c(c1)O[C@H](c1ccc(O)c(O)c1)[C@@H](O)C2` [(+)-Catechin], the “TG reduction rate (%)” value in the data set on HepG2 fatty liver cells is 29.57 ± 4.02%.

With `O=c1c(O)c(-c2ccc(O)c(O)c2)oc2cc(O)cc(O)c12` [quercetin], in data set [1], the ALT was 93 ± 26 IU/L, the AST is given as 115 ± 40 IU/L, the GSP stood at 286 ± 70 mg/L and the “Total HAI score” value is on record as 1.1 ± 0.7.

For `COc1ccc([C@@H]2CC(=O)c3c(O)cc(O[C@@H]4O[C@H](CO[C@@H]5O[C@@H](C)[C@H](O)[C@@H](O)[C@H]5O)[C@@H](O)[C@H](O)[C@H]4O)cc3O2)cc1` [Didymin], the “TG reduction rate (%)” value in the data set with HepG2 fatty liver cells came to 20.37 ± 12.69%.

Turning to `O=c1c(O)c(-c2ccc(O)cc2)oc2cc(O)cc(O)c12` [Kaempferol], in data set [1], the ALT is given as 128 ± 40 IU/L, the AST is recorded as 198 ± 105 IU/L and the GSP was 456 ± 101 mg/L.

On to `O=S(=O)([O-])NC1CCCCC1.[Na+]` [Sodium cyclamate], for which the “TG reduction rate (%)” value in the data set with HepG2 fatty liver cells was found to be 4.77 ± 4.49%.

As for `COc1ccc([C@@H]2CC(=O)c3c(O)cc(O[C@@H]4O[C@H](CO[C@@H]5O[C@@H](C)[C@H](O)[C@@H](O)[C@H]5O)[C@@H](O)[C@H](O)[C@H]4O)cc3O2)cc1O` [Hesperidin], the “TG reduction rate (%)” value in the data set on HepG2 fatty liver cells is 34.81 ± 5.25%.

Regarding `COc1ccc([C@@H]2CC(=O)c3c(O)cc(O[C@@H]4O[C@H](CO)[C@@H](O)[C@H](O)[C@H]4O[C@@H]4O[C@@H](C)[C@H](O)[C@@H](O)[C@H]4O)cc3O2)cc1O` [Neohesperidin], the “TG reduction rate (%)” value with HepG2 fatty liver cells was 13.29 ± 7.21%.
